Measured values published in paper PMC10641831 (Journal of Medicinal Chemistry, 2023).
Values joined by “and” are separate entries in the source; they are usually repeats but may differ in a detail not shown here. Equal values may be shown once. Read-outs that look alike come from different tables or passages of the source. Numbered stars: 1 amine (or outer) side, 2 acyl side, 3 side chain; on linkers, the order of the positions; unused ones are H or OH. Bridge positions count the residues as written; N and C are the ends. Square brackets hold non-standard residues; d marks the D form. Peptide text beside a SMILES is read from it. AMPB(E) = O=C(c1ccc(/N=N/c2ccc(CN[*:1])cc2)cc1)[*:2]; X2 = O=C(c1ccc(/N=N\c2ccc(CN[*:1])cc2)cc1)[*:2]

Legend:
hV1aR [1] = biological target: T1, hV1aR (Homo sapiens, UniProt P37288); assay: IP-One accumulation assay, antagonist function (VP displacement) at hV1aR; assay type: cell-based; conditions: coaddition of VP 1 nM; for antagonistic activity at V1aR: 10 and 100 μM; for VP displacement: at 10 μM
T1 construct: expressed in transfected cells
T1 sequence (P37288 whole entry): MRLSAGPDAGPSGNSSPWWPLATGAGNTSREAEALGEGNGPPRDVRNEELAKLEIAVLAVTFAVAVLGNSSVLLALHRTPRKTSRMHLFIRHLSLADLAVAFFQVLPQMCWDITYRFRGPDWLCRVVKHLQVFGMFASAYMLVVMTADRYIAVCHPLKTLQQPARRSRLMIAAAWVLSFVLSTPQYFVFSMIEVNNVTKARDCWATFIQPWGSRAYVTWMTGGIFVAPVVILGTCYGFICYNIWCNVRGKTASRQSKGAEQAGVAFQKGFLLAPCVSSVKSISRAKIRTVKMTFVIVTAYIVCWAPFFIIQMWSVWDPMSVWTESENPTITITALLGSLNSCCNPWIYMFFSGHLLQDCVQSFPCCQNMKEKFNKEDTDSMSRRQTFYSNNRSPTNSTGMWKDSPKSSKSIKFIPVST
Protocol: This was done via coaddition and prior mixing of VP (EC60 of 1 nM) and the potential antagonists 13–19. […] IP1 accumulation was measured at concentrations of 10 and 100 μM for peptides 13–19.
Figure 5 Functional screen for antagonistic activities at V1aR. […] Data represent mean ± SEM from at least three independent experiments, each performed in triplicate.
To assess the antagonistic properties of compounds 13–19, a 4-fold concentrated dilution series in stimulation buffer was prepared for each isomer. Separately, a 4-fold concentrated VP solution was prepared (4 nM, final concentration 1 nM). A 1:1 mixture of VP solution and the diluted ligand was made to end up with a 2-fold concentration of both compounds. The following steps were conducted as described above for the agonist mode. The FRET ratios (665/615 nm) were calculated and obtained values were normalized to the basal activity value (0%) and maximal effect of VP (100%). Atosiban was used as a positive control.

[2] = Thermal half-life of the Z-isomer (UV/vis, 96-well plate); assay type: physicochemical; conditions: for t1/2 (thermal half-life, Figure S50): 50 µM in HEPES buffer + 0.25% DMSO, pre-irradiated with 340 nm; for t1/2 (thermal half-life Z to E): preirradiation with 340 nm
From the text: All photoprobes were investigated regarding their photophysical properties in aqueous buffer (pH 7.5), mimicking the conditions of the biological functional assays. […] Upon irradiation with 340 nm light for 10 s and monitoring via UV/vis spectroscopy, all compounds could be switched to the Z-isomer, reaching the photostationary state (PSS). Compounds 8–17 containing azobenzene could be switched back to the E-isomer by irradiation at 420 nm for 60 s. Compounds 18 and 19 containing arylazopyrazole could be reverted to the E isomer by using 528 nm light. […] The PSS, when switched to the Z-isomer, was consistently good, with a PSS of 81–95%. […] The thermal half-lives of 10 and 12 were also measured at 37 °C, representing the temperature during the biological assays. As expected, the thermal half-lives decreased, however, the ratio of E and Z isomers remained stable during the incubation period of the biological assays (1 h).
Starting materials and commercial reagents were purchased from Acros, Alfa Aesar, Fisher, Fluka, Fluorochem, Merck (Sigma-Aldrich), TCI and VWR and were used without further purification. Solvents were used in p.a. quality or dried according to common procedures if necessary. All reactions with oxygen- or moisture-sensitive reagents were carried out in glassware that was dried before use by heating under vacuum. Dry nitrogen or argon was used for an inert gas atmosphere. All NMR spectra were measured at room temperature (20 °C) using a Bruker Avance 400 (400 MHz for ^1H and 101 MHz for ^13C) or a Bruker Avance 600 (600 MHz for ^1H and 151 MHz for ^13C) NMR spectrometer. All chemical shifts are reported in δ-scale as parts per million [ppm] (multiplicity, coupling constant J, number of protons) relative to the solvent residual peaks. Coupling constants J are given in hertz [Hz]. Abbreviations used for signal multiplicity: ^1H NMR: s = singlet, d = doublet, dd = doublet of doublets, ddd = doublet of doublets of doublets, dt = doublet of triplets, t = triplet, td = triplet of doublets, q = quartet, and m = multiplet. All mass spectra were recorded on an Agilent Q-TOF 6540 UHD, Finnigan MAT SSQ 710 A, Jeol AccuTOF GCX or ThermoQuest Finnigan TSQ 7000 spectrometer. Absorption spectra were recorded on an UV/vis Agilent Cary 50 spectrometer. Thermal half-lives were measured on a 96-well plate in a Thermo Scientific Multiskan Spectrum. Analytical TLC was performed on silica gel-coated alumina plates (MN precoated TLC-sheets ALUGRAM Xtra SIL G/UV254). Visualization was done using UV light (254 or 366 nm) or staining with ninhydrin solution. Column chromatography was performed on a Biotage Isolera One automated flash purification system with a UV/vis detector. Analytical RP-HPLC was carried out on an Agilent 1220 Infinity LC System (column: P/No 00F-4251-B0, Phenomenex Luna 3 μm C18(2) 100 Å, LC column 150 mm × 2.0 mm). Purification by preparative HPLC was conducted on a preparative HPLC Agilent 1260 Infinity LC System [column: P/No 00G-4253-P0-AX, Phenomenex Luna 10 μm C18(2) 100 Å, LC column 250 mm × 21.2 mm]. The eluent systems were used as specified. After the purification process, solvents were removed by lyophilization. Switching experiments were done with a 340 nm LED (SSC VIOSYS CUD4AF1B, 500 mA, 55 mW), 420 nm LED (ILH-XC01-S410-SC211-WIR200, 800 mA, 440 mW), and 528 nm LED (OSRAM Oslon SSL 80 green, 500 mA, 34 mW). Purity of all photoprobes was >95% as determined by analytical RP-HPLC at 220 nm in DMSO.
1.3.4. Thermal Half-lives
Thermal half-lives were measured in a 96-well plate in a Thermo Scientific Multiskan® Spectrum at 25 °C (and at 37 °C for compounds 10 and 12). The solutions (50 µM in HEPES buffer + 0.25% DMSO) were pre-irradiated with 340 nm. The absorption at 335 nm was measured every 3 h. The data was analyzed using Origin 2021.
0,7 1/2 ExpDec1 Fit of Sheet1 B
Modell ExpDec1 0,35 Modell ExpDec1
0,6 Gleichung y = A 1 *e xp (-x/t1 ) + y0 Gleichung y = A 1 *e xp (-x/t1 ) + y0 […]

[3] = Photostationary state by analytical C18-RP-HPLC; assay type: physicochemical; conditions: for PSS (E → Z): irradiation with 340 nm, HEPES buffer; for PSS (Z → E): irradiation with 420 nm (8–17) or 528 nm (18, 19)
Protocol: All photoprobes were investigated regarding their photophysical properties in aqueous buffer (pH 7.5), mimicking the conditions of the biological functional assays.
1.3.2. Photostationary States
Photostationary states (PSS) were measured on analytical C18-RP-HPLC (flow: 0.3 mL/min, solvent A: H2O (0.05% TFA), solvent B: MeCN). To determine the PSS of the photoswitches, the samples (in 0.1 mM in HEPES buffer + 1% DMSO, pH 7.5) were irradiated first with 340 nm to get the Z-isomer. Afterwards, the sample was irradiated with 420 nm (8-17) or 528 nm (18 and 19), respectively, to get back to the E-isomer. The samples were measured at the isosbestic points.

hV1aR [4] = biological target: T1, hV1aR; assay: IP-One accumulation assay, agonist function, HEK293 cells expressing hV1aR; assay type: cell-based; conditions: for agonist activity at V1aR: concentrations up to 10 μM
hV1bR = biological target: T2, hV1bR (Homo sapiens, UniProt P47901); assay: IP-One accumulation assay, agonist function, HEK293 cells expressing hV1bR; assay type: cell-based; conditions: for Emax: HEK293, relative to the effect of VP, read-out: V1bR Emax ± SEM; for V1bR E/Z ratio EC50: ratio of EC50 of E- and Z-isomer; for reduced potency at V1bR compared to VP: EC50 vs VP
T2 construct: expressed in transfected cells
T2 sequence (P47901 1-424): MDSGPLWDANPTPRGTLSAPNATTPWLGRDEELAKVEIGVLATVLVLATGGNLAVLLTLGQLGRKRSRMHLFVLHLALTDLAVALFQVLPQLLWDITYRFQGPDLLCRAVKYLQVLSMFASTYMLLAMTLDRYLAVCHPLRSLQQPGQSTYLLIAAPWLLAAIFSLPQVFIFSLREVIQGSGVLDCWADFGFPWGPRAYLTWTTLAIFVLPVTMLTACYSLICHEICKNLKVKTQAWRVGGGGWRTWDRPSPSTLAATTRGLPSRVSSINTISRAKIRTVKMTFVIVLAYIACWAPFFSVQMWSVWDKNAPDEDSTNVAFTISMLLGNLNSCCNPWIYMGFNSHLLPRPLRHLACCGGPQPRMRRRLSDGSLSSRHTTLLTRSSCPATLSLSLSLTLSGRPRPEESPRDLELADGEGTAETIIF

[5] = IP-One, stable HEK293 hV1aR, μM, read-out: V1aR EC50
[6] = IP-One, stable HEK293 hV1bR, read-out: V1bR EC50 ± SEM
[7] = supplementary CSV, µM, read-out: activity E-isomer V1aR
[8] = supplementary CSV, µM, read-out: activity Z-isomer V1aR
[9] = supplementary CSV, read-out: activity E-isomer V1bR

Compound	antagonistic activity at V1aR (hV1aR [1])	t1/2 (thermal half-life, Figure S50) ([2]; 25 °C) [h]	t1/2 (thermal half-life Z to E) ([2]; 25 °C, HEPES buffer pH 7.4) [h]	PSS (E → Z) [3] [%]	PSS (Z → E) [3] [%]	EC50 (hV1aR [4]; [5]) [µM]	Emax (hV1bR) [%]	EC50 (hV1bR; [6]) [µM]	V1bR E/Z ratio EC50 (hV1bR)	other results
[AzbC(o,o)^1,Dap^6]-VP [compound 15]	some antagonistic properties	64.8	64.8	88	69					
N=C(N)NCCC[C@H](NC(=O)c1ccc(/N=N\c2ccc(CNC(=O)[C@@H]3CSSC[C@H](N)C(=O)N[C@@H](Cc4ccc(O)cc4)C(=O)N[C@@H](Cc4ccccc4)C(=O)N[C@@H](CCC(N)=O)C(=O)N[C@@H](CC(N)=O)C(=O)N3)cc2)cc1)C(=O)NCC(N)=O [Z-14] (H-CYFQNC[X2]RG-NH2; disulfide 1-6)						> 10	67 ± 2	2.37 ± 0.607	2.1	
NC(=O)CC[C@@H]1NC(=O)[C@H](Cc2ccccc2)NC(=O)[C@H](Cc2ccc(O)cc2)NC(=O)[C@@H](N)CSSC[C@@H](C(=O)NCc2ccc(/N=N\c3ccc(C(=O)NCC(N)=O)cc3)cc2)NC(=O)[C@H](CC(N)=O)NC1=O [Z-13] (H-CYFQNC[X2]G-NH2; disulfide 1-6)						> 10	52 ± 5	7.23 ± 1.57	1.6	
N=C(N)NCCC[C@H](NC(=O)c1ccc(/N=N/c2ccc(CNC(=O)[C@@H]3CSSC[C@H](N)C(=O)N[C@@H](Cc4ccc(O)cc4)C(=O)N[C@@H](Cc4ccccc4)C(=O)N[C@@H](CCC(N)=O)C(=O)N[C@@H](CC(N)=O)C(=O)N3)cc2)cc1)C(=O)NCC(N)=O [compound 14, [AzbL^7]-VP] (H-CYFQNC[AMPB(E)]RG-NH2; disulfide 1-6)	some level of antagonistic activity	33.6	33.6	81	86					agonist activity at V1aR (hV1aR [4]): complete loss of potency; EC50 (hV1aR [4]; [7]): > 10 µM; EC50 (hV1aR [4]; [8]): > 10 µM; reduced potency at V1bR compared to VP (hV1bR): 700–2000 fold; EC50 (hV1bR; [9]): 4.97 ± 0.754 µM; VP displacement (hV1aR [1]): 85%
NC(=O)CC[C@@H]1NC(=O)[C@H](Cc2ccccc2)NC(=O)[C@H](Cc2ccc(O)cc2)NC(=O)[C@@H](N)CSSC[C@@H](C(=O)NCc2ccc(/N=N/c3ccc(C(=O)NCC(N)=O)cc3)cc2)NC(=O)[C@H](CC(N)=O)NC1=O [E-13] (H-CYFQNC[AMPB(E)]G-NH2; disulfide 1-6)						> 10	45 ± 3	11.3	1.6	
N=C(N)NCCC[C@H](NC(=O)[C@@H]1CCCN1C(=O)[C@@H]1CSSC[C@H](N)C(=O)N[C@@H](Cc2ccc(O)cc2)C(=O)N[C@@H](Cc2ccc(/N=N/c3ccccc3)cc2)C(=O)N[C@@H](CCC(N)=O)C(=O)N[C@@H](CC(N)=O)C(=O)N1)C(=O)NCC(N)=O [compound 12, [AzbS^3]-VP]		72	72							reduced potency at V1aR compared to VP (hV1aR [4]; EC50 vs VP): > 1000 fold; potency difference between the E and Z isomers at V1bR (photoswitch window) (hV1bR; EC50 E vs Z): 5.3 fold and 5 fold; t1/2 (thermal half-life, Figure S50) ([2]; 37 °C): 33.6 h; t1/2 (thermal half-life Z to E) ([2]; 37 °C): 33.6 h
NC(=O)CC[C@@H]1NC(=O)[C@H](Cc2ccccc2)NC(=O)[C@H](Cc2ccc(O)cc2)NC(=O)[C@@H](N)CSSC[C@@H](C(=O)NCc2ccc(/N=N/c3ccc(C(=O)NCC(N)=O)cc3)cc2)NC(=O)[C@H](CC(N)=O)NC1=O [compound 13, [AzbL^7/8]-VP] (H-CYFQNC[AMPB(E)]G-NH2; disulfide 1-6)	some level of antagonistic activity	12.4	12	85	79					agonist activity at V1aR (hV1aR [4]): complete loss of potency; EC50 (hV1aR [4]; [7]): > 10 µM; EC50 (hV1aR [4]; [8]): > 10 µM; reduced potency at V1bR compared to VP (hV1bR): 700–2000 fold; EC50 (hV1bR; [9]): 11.3 ± 1.83 µM; EC50 (hV1bR; supplementary CSV, read-out: activity Z-isomer V1bR): 7.23 ± 1.58 µM; VP displacement (hV1aR [1]): 76%
